Laboratory results taken from patent US8722683B2, “Benzodioxole piperazine compounds” (Hoffmann LA-Roche Inc., priority 2011, dated 2014).

How the values were obtained:
[1] = biological target: D2 receptor (Homo sapiens (Human), UniProt P14416); assay: Radioligand binding ([3H]-spiperone) to cloned D2 receptor expressed in HEK-293 EBNA cells; settings: HEK293 EBNA membranes, 0.7 nM [3H]-spiperone
Experimental: (§1) HEK293 EBNA cells were transiently transfected with expression plasmids encoding for the human D2 or D3 or for the human 5-HT2A receptor, respectively. The cells were harvested 48 h post-transfection, washed three times with cold PBS and stored at −80° C. prior to use. The pellet was suspended in cold 50 mM Tris-HCl buffer containing 10 mM EDTA (pH 7.4) and was homogenized with a Polytron (Kinematica AG, Basel, Switzerland) for 20-30 sec at 12.000 rpm. After centrifugation at 48.000×g for 30 min at 4° C., the pellet was resuspended in cold 10 mM Tris-HCl buffer containing 0.1 mM EDTA (pH 7.4), homogenized, and centrifuged as above. This pellet was further resuspended in a smaller volume of ice cold 10 mM Tris-HCl buffer containing 0.1 mM EDTA (pH 7.4) and homogenized with a Polytron for 20-30 sec at 12.000 rpm. The protein content of this homogenate was determined with the Bio-Rad (Bradford) Protein Assay (Biorad Laboratories GmbH, München, Germany) according to the instructions of the manufacturer using gamma globulin as the standard. This homogenate was stored at −80° C. in aliquots and thawed immediately prior to use.
(§2) Radioligand Binding Assay
(§3) Aliquots of membrane preparations were thawed at RT, resupended in assay buffer (D2, D3: 50 mM Tris-HCl, 120 mM NaCl, 5 mM MgCl2, 1 mM EDTA, 5 mM KCl, 1.5 mM CaCl2, pH=7.4; 5-HT2A: 50 mM Tris-HCl, 10 mM MgCl2, 1 mM EGTA, pH=7.4), homogenized with a Polytron for 20-30 sec at 12.000 rpm and adjusted to a final concentration of approximately 7.5 μg protein/well (D2, D3) and 15 μg protein/well (5-HT2A), respectively.
The binding affinity (Ki) of the compounds was determined using radioligand binding. […] The nonspecific binding was determined with equally composed reaction mixtures in the presence of 10 μM unlabelled spiperone. Per well 45 μl of Microscint 40 (Perkin Elmer, Schwerzenbach, Switzerland) was added, plates for sealed, shaken for 20 min and counted for 3 min on a Topcount Microplate Scintillation Counter (Canberra Packard SA, Zürich, Switzerland) with quenching correction.
(§4) The CPM value for each duplicate of a concentration of competing compound was averaged (y1), then the % specific binding was calculated according to the equation (((y1−non-specific)/(total binding−non-specific))×100). Graphs were plotted with the % specific binding using XLfit, a curve fitting program that iteratively plots the data using Levenberg-Marquardt algorithm. The single site competition analysis equation used was y=A+((B−A)/(1+((x/C)D))), where y is the % specific binding, A is the minimum y, B is the maximum y, C is the IC50, x is the log 10 of the concentration of the competing compound and D is the slope of the curve (the Hill Coefficient). […] The affinity constant (Ki) was calculated using the Cheng-Prusoff equation Ki=(IC50/1+([L]/Kd), where [L] is the concentration of radioligand and Kd is the dissociation constant of the radioligand at the receptor as determined by the saturation isotherm.

[2] = biological target: D3 receptor (Homo sapiens (Human), UniProt P35462); assay: Radioligand binding ([3H]-spiperone) to cloned D3 receptor expressed in HEK-293 EBNA cells; settings: HEK293 EBNA membranes, 0.5 nM [3H]-spiperone
Chain of D3 receptor (P35462 whole entry): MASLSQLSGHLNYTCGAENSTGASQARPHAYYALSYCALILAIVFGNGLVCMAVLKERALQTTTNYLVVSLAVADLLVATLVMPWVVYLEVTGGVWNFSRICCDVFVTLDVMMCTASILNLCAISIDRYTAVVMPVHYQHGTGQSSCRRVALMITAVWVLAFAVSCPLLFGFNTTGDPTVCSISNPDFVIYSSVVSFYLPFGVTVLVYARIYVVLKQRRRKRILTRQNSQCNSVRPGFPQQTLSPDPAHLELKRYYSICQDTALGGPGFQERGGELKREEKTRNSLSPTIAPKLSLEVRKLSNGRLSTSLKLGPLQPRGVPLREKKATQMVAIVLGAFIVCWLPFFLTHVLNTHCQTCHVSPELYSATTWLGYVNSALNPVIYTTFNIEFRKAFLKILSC
Experimental: as §1, §2, §3
The binding affinity (Ki) of the compounds was determined using radioligand binding. […] At the end of the incubation, the reaction mixtures were filtered on to unifilter 96-well white microplates with bonded GF/C filters (Packard BioScience, Zürich, Switzerland; preincubated for 1 h in 0.1% polyethylenimine (PEI) in assay buffer) with a Filtermate 196 harvester (Packard BioScience) and washed 3 times with cold assay buffer. The nonspecific binding was determined with equally composed reaction mixtures in the presence of 10 μM unlabelled spiperone. Per well 45 μl of Microscint 40 (Perkin Elmer, Schwerzenbach, Switzerland) was added, plates for sealed, shaken for 20 min and counted for 3 min on a Topcount Microplate Scintillation Counter (Canberra Packard SA, Zürich, Switzerland) with quenching correction.
as §4

Chain of D2 receptor (P14416 whole entry): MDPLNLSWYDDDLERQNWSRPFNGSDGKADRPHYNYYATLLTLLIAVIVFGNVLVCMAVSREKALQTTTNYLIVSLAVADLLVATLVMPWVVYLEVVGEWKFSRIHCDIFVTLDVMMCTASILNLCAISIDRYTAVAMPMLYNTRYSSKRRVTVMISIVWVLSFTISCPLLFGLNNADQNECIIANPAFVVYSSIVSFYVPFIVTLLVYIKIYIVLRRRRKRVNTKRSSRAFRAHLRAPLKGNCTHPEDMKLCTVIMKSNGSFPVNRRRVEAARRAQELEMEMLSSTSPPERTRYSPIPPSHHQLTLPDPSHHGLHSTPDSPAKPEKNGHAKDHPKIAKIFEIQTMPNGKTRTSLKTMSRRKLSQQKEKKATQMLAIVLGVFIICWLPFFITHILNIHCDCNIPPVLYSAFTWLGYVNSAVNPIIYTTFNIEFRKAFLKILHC

CCCC(=O)N[C@H]1CC[C@H](CCN2CCN(c3cccc4c3OCO4)CC2)CC1 [Example 19, Trans-N-{4-[2-(4-Benzo[1,3]dioxol-4-yl-piperazin-1-yl)-ethyl]-cyclohexyl}-butyramide]
Ki [1]: 144 nM
Ki [2]: 1.58 nM

CO[C@@H]1CC[C@@H](CC(=O)N[C@H]2CC[C@H](CCN3CCN(c4cccc5c4OCO5)CC3)CC2)C1 [Example 23, Trans-N-{4-[2-(4-Benzo[1,3]dioxol-4-yl-piperazin-1-yl)-ethyl]-cyclohexyl}-2-((1R,3R)-3-methoxy-cyclopentyl)-acetamide]
Ki [1]: 183 nM
Ki [2]: 2.5 nM

CC(C)(O)C(=O)N[C@H]1CC[C@H](CCN2CCN(c3cccc4c3OCO4)CC2)CC1 [Example 24, Trans-N-{4-[2-(4-Benzo[1,3]dioxol-4-yl-piperazin-1-yl)-ethyl]-cyclohexyl}-2-hydroxy-2-methyl-propionamide]
Ki [1]: 181 nM
Ki [2]: 8.8 nM

CC(C)(O)CC(=O)N[C@H]1CC[C@H](CCN2CCN(c3cccc4c3OCO4)CC2)CC1 [Example 27, Trans-N-{4-[2-(4-Benzo[1,3]dioxol-4-yl-piperazin-1-yl)-ethyl]-cyclohexyl}-3-hydroxy-3-methyl-butyramide]
Ki [1]: 76.8 nM
Ki [2]: 1.56 nM

O=C(CC1(O)CCC1)N[C@H]1CC[C@H](CCN2CCN(c3cccc4c3OCO4)CC2)CC1 [Example 28, Trans-N-{4-[2-(4-Benzo[1,3]dioxol-4-yl-piperazin-1-yl)-ethyl]-cyclohexyl}-2-(1-hydroxy-cyclobutyl)-acetamide]
Ki [1]: 94.6 nM
Ki [2]: 1.4 nM

O=C(N[C@H]1CC[C@H](CCN2CCN(c3cccc4c3OCO4)CC2)CC1)C1(O)CC1 [Example 29, Trans-1-Hydroxy-cyclopropanecarboxylic acid {4-[2-(4-benzo[1,3]dioxol-4-yl-piperazin-1-yl)-ethyl]-cyclohexyl}-amide]
Ki [1]: 61.5 nM
Ki [2]: 1.88 nM

CS(=O)(=O)N[C@H]1CC[C@H](CCN2CCN(c3cccc4c3OCO4)CC2)CC1 [Example 34, Trans-N-{4-[2-(4-Benzo[1,3]dioxol-4-yl-piperazin-1-yl)-ethyl]-cyclohexyl}-methanesulfonamide]
Ki [1]: 145 nM
Ki [2]: 3.1 nM

O=C(N[C@H]1CC[C@H](CCN2CCN(c3cccc4c3OCO4)CC2)CC1)C1(O)CCCC1 [Example 36, 1-Hydroxy-cyclopentanecarboxylic acid-trans-N-{4-[2-(4-benzo[1,3]dioxol-4-yl-piperazin-1-yl)-ethyl]-cyclohexyl}-amide]
Ki [1]: 124 nM
Ki [2]: 11 nM

O=C(N[C@H]1CC[C@H](CCN2CCN(c3cccc4c3OCO4)CC2)CC1)C1(O)CCCCC1 [Example 37, 1-Hydroxy-cyclohexanecarboxylic acid-trans-N-{4-[2-(4-benzo[1,3]dioxol-4-yl-piperazin-1-yl)-ethyl]-cyclohexyl}-amide]
Ki [1]: 175 nM
Ki [2]: 15.7 nM

COC1(C(=O)N[C@H]2CC[C@H](CCN3CCN(c4cccc5c4OCO5)CC3)CC2)CCCCC1 [Example 41, 1-Methoxy-cyclohexanecarboxylic acid-Trans-N-{4-[2-(4-benzo[1,3]dioxol-4-yl-piperazin-1-yl)-ethyl]-cyclohexyl}-amide]
Ki [1]: 251 nM
Ki [2]: 12.5 nM

C[C@@H](O)C(=O)N[C@H]1CC[C@H](CCN2CCN(c3cccc4c3OCO4)CC2)CC1 [Example 42, (R)-Trans-N-{4-[2-(4-Benzo[1,3]dioxol-4-yl-piperazin-1-yl)-ethyl]-cyclohexyl}-2-hydroxy-propionamide]
Ki [1]: 89.8 nM
Ki [2]: 2.17 nM

O=C(N[C@H]1CC[C@H](CCN2CCN(c3cccc4c3OCO4)CC2)CC1)c1ccc(F)cc1 [Example 46, Trans-N-{4-[2-(4-Benzo[1,3]dioxol-4-yl-piperazin-1-yl)-ethyl]-cyclohexyl}-4-fluoro-benzamide]
Ki [1]: 82.5 nM
Ki [2]: 3.79 nM

O=C(N[C@H]1CC[C@H](CCN2CCN(c3cccc4c3OCO4)CC2)CC1)c1ccnc2ccccc12 [Example 47, Quinoline-4-carboxylic acid-trans-N-{4-[2-(4-benzo[1,3]dioxol-4-yl-piperazin-1-yl)-ethyl]-cyclohexyl}-amide]
Ki [1]: 509 nM
Ki [2]: 2.4 nM

O=C(N[C@H]1CC[C@H](CCN2CCN(c3cccc4c3OCO4)CC2)CC1)c1cccnc1 [Example 48, Trans-N-{4-[2-(4-Benzo[1,3]dioxol-4-yl-piperazin-1-yl)-ethyl]-cyclohexyl}-nicotinamide]
Ki [1]: 88.2 nM
Ki [2]: 1.79 nM

O=C(N[C@H]1CC[C@H](CCN2CCN(c3cccc4c3OCO4)CC2)CC1)C1COc2ccccc2C1 (stereo partly drawn) [Example 50, Chroman-3-carboxylic acid-trans-N-{4-[2-(4-benzo[1,3]dioxol-4-yl-piperazin-1-yl)-ethyl]-cyclohexyl}-amide]
Ki [1]: 572 nM
Ki [2]: 0.87 nM

O=C(Cc1ccc2c(c1)OCO2)N[C@H]1CC[C@H](CCN2CCN(c3cccc4c3OCO4)CC2)CC1 [Example 51, 2-Benzo[1,3]dioxol-5-yl-trans-N-{4-[2-(4-benzo[1,3]dioxol-4-yl-piperazin-1-yl)-ethyl]-cyclohexyl}-acetamide]
Ki [1]: 681 nM
Ki [2]: 2.11 nM

O=C(CC1CCOCC1)N[C@H]1CC[C@H](CCN2CCN(c3cccc4c3OCO4)CC2)CC1 [Example 53, N-trans-{4-[2-(4-Benzo[1,3]dioxol-4-yl-piperazin-1-yl)-ethyl]-cyclohexyl}-2-(tetrahydro-pyran-4-yl)-acetamide]
Ki [1]: 139 nM
Ki [2]: 2.09 nM

O=C(N[C@H]1CC[C@H](CCN2CCN(c3cccc4c3OCO4)CC2)CC1)C1CCC1 [Example 54, Cyclobutanecarboxylic acid-trans-N-{4-[2-(4-benzo[1,3]dioxol-4-yl-piperazin-1-yl)-ethyl]-cyclohexyl}-amide]
Ki [1]: 91.1 nM
Ki [2]: 1.97 nM

CS(=O)(=O)CC(=O)N[C@H]1CC[C@H](CCN2CCN(c3cccc4c3OCO4)CC2)CC1 [Example 55, Trans-N-{4-[2-(4-Benzo[1,3]dioxol-4-yl-piperazin-1-yl)-ethyl]-cyclohexyl}-2-methanesulfonyl-acetamide]
Ki [1]: 95.4 nM
Ki [2]: 1.45 nM

N#Cc1ccc(C(=O)N[C@H]2CC[C@H](CCN3CCN(c4cccc5c4OCO5)CC3)CC2)cc1 [Example 59, Trans-N-{4-[2-(4-Benzo[1,3]dioxol-4-yl-piperazin-1-yl)-ethyl]-cyclohexyl}-4-cyano-benzamide]
Ki [1]: 101 nM
Ki [2]: 3.55 nM

O=C(N[C@H]1CC[C@H](CCN2CCN(c3cccc4c3OCO4)CC2)CC1)C1CC(Cl)C1 (stereo partly drawn) [Example 60, 3-Chloro-cyclobutanecarboxylic acid-trans-N-{4-[2-(4-benzo[1,3]dioxol-4-yl-piperazin-1-yl)-ethyl]-cyclohexyl}-amide]
Ki [1]: 81.1 nM
Ki [2]: 2.98 nM

COC(C)(C)C(=O)N[C@H]1CC[C@H](CCN2CCN(c3cccc4c3OCO4)CC2)CC1 [Example 63, Trans-N-{4-[2-(4-Benzo[1,3]dioxol-4-yl-piperazin-1-yl)-ethyl]-cyclohexyl}-2-methoxy-2-methyl-propionamide]
Ki [1]: 117 nM
Ki [2]: 27.4 nM

CO[C@@H](C(=O)N[C@H]1CC[C@H](CCN2CCN(c3cccc4c3OCO4)CC2)CC1)C(C)C [Example 64, (R)-trans-N-{4-[2-(4-Benzo[1,3]dioxol-4-yl-piperazin-1-yl)-ethyl]-cyclohexyl}-2-methoxy-3-methyl-butyramide]
Ki [1]: 89.5 nM
Ki [2]: 14.7 nM
